Results as given in patent US20240327354A1, “GRAM-NEGATIVE BACTERIA EFFLUX PUMP INHIBITORS” (INSTITUT NATIONAL DE LA SANTÉ ET DE LA RECHERCHE MÉDICALE, priority 2021, published 2024).
Where a name gives a salt, the structure may show the parent alone.

Tested on: E. coli BW25113
Experiment: Assay 1: growth inhibition of E. coli by sub-inhibitory pyridomycin in combination with examples (resazurin reduction)
Assay type: cell-based, Escherichia coli
Conditions: read-out: EC50 on E. coli with 8 μg/mL of pyridomycin, 8 μg/mL pyridomycin, 5 h, 37° C.
Description: Escherichia coli BW25113 (CGSC 7636) and its derivatives E. coli ΔtolC (JW5503-1, ΔtolC732::kan, CGSC 11430), E. coli ΔacrA (JW0452-3, ΔacrA748::kan, CGSC 11843) and E. coli ΔacrB (JW0451-2, ΔacrB747::kan, CGSC 8609) were obtained from E. coli Genetic Stock Center (CGSC, New Haven, Connecticut) and originated from the Keio Collection (Baba T et al, Mol Sys Biol, 2006). Klebsiella pneumoniae (LMG 2095/ATCC 13883) and K. pneumoniae (ATCC43816), Pseudomonas aeruginosa (PAO1), Acinetobacter baumannii (LMG 1025, ATCC 17978), were obtained from ATCC or BCCM/LMG Bacteria Collection. All bacteria were grown and tested in cation-adjusted Mueller-Hinton broth (CAMHB; BD Difco) at 37° C. For conservation, log phase bacteria were frozen (−80° C.) in CAMHB supplemented with 15% glycerol.
Briefly, E. coli BW25113 were diluted from frozen or growing stocks to an OD600 of 0.0004-0.001 in CAMHB. […] E. coli BW25113 viability was evaluated using the resazurin reduction assay, and measured by fluorescence (POLARstar Omega, BMG Labtech: Ex: 530 nm Em: 590 nm). EC50 were defined as the compound concentration that prevented 50% of resazurin turnover compared to the non-treated bacteria.

Row | SMILES | EC50
1 | CN1CCN(c2ncc(Br)cc2Cl)CC1 [Example 4, 1-(5-bromo-3-chloro-2-pyridyl)-4-methyl-piperazine] | 5 to 100 µM
2 | CC(=O)Nc1cnc(N2CCN(C)CC2)c(Cl)c1 [Example 80, N-[5-chloro-6-(4-methylpiperazin-1-yl)-3-pyridyl]acetamide] | 5 to 100 µM
3 | COC(=O)c1cnc(N2CCN(C)CC2)c(Cl)c1 [Example 3, methyl 5-chloro-6-(4-methylpiperazin-1-yl)pyridine-3-carboxylate] | 5 to 100 µM
4 | NCC1CCN(c2ccc3nc(N4CCNCC4)c(Cl)cc3c2)C1 (stereo not shown) [Example 100, [1-(3-chloro-2-piperazin-1-yl-6-quinolyl)pyrrolidin-3-yl]methanamine;dihydrochloride] | < 5 µM
5 | NCCc1ccc(OC(=O)c2cnc(N3CCNCC3)c(Cl)c2)cc1 [Example 28, [4-(2-aminoethyl)phenyl] 5-chloro-6-piperazin-1-yl-pyridine-3-carboxylate;dihydrochloride] | < 5 µM
6 | CC(=O)Nc1cnc(N2CCNCC2)c(Cl)c1 [Example 35, N-(5-chloro-6-piperazin-1-yl-3-pyridyl)acetamide;hydrochloride] | 100 to 500 µM
7 | C#Cc1cnc(N2CCNCC2)c(Cl)c1 [Example 88, 1-(3-chloro-5-ethynyl-2-pyridyl)piperazine] | 5 to 100 µM
8 | O=C1CCCN1c1ccc2nc(N3CCNCC3)c(Cl)cc2c1 [Example 97, 1-(3-chloro-2-piperazin-1-yl-6-quinolyl)pyrrolidin-2-one;hydrochloride] | < 5 µM
9 | Cc1cc2nc(Cl)c(N3CCNCC3)nc2cc1C [Example 47, 2-chloro-6,7-dimethyl-3-piperazin-1-yl-quinoxaline;hydrochloride] | < 5 µM
10 | NCC1CCN(c2ccc3nc(N4CCNCC4)c(Cl)cc3c2)CC1 [Example 99, [1-(3-chloro-2-piperazin-1-yl-6-quinolyl)-4-piperidyl]methanamine;dihydrochloride] | < 5 µM
11 | NCc1nc(-c2cnc(N3CCNCC3)c(Cl)c2)no1 [Example 74, [3-(5-chloro-6-piperazin-1-yl-3-pyridyl)-1,2,4-oxadiazol-5-yl]methanamine;dihydrochloride] | 5 to 100 µM
12 | C[C@@H](N)c1cccc(-c2ccc3nc(N4CCNCC4)c(Cl)cc3c2)c1 [Example 113, (1R)-1-[3-(3-chloro-2-piperazin-1-yl-6-quinolyl)phenyl]ethanamine;dihydrochloride] | < 5 µM
13 | NCCC#Cc1cnc(N2CCNCC2)c(Cl)c1 [Example 86, 4-(5-chloro-6-piperazin-1-yl-3-pyridyl)but-3-yn-1-amine; 2,2,2-trifluoroacetic acid] | 5 to 100 µM
14 | Clc1cc(Br)cnc1N1CCNCC1 [Example 19, 1-(5-bromo-3-chloro-2-pyridyl)piperazine;hydrochloride] | 5 to 100 µM
15 | COc1cnc(N2CCNCC2)c(Cl)c1 [Example 13, 1-(3-chloro-5-methoxy-2-pyridyl)piperazine;hydrochloride] | 100 to 500 µM
16 | CN1CCN(c2ncc(C(F)(F)F)cc2Br)CC1 [Example 2, 1-[3-bromo-5-(trifluoromethyl)-2-pyridyl]-4-methyl-piperazine] | 5 to 100 µM
17 | NCC(=O)Nc1ccc2nc(N3CCNCC3)c(Cl)cc2c1 [Example 65, 2-amino-N-(3-chloro-2-piperazin-1-yl-6-quinolyl)acetamide;dihydrochloride] | < 5 µM
18 | NCc1cc(Cl)cc(-c2ccc3nc(N4CCNCC4)c(Cl)cc3c2)c1 [Example 137, [3-chloro-5-(3-chloro-2-piperazin-1-yl-6-quinolyl)phenyl]methanamine;dihydrochloride] | < 5 µM
19 | O=C1CNCCN1c1ccc2nc(N3CCNCC3)c(Cl)cc2c1 [Example 64, 1-(3-chloro-2-piperazin-1-yl-6-quinolyl)piperazin-2-one;dihydrochloride] | 5 to 100 µM
20 | NCc1ccnc(-c2ccc3nc(N4CCNCC4)c(Cl)cc3c2)c1 [Example 131, [2-(3-chloro-2-piperazin-1-yl-6-quinolyl)-4-pyridyl]methanamine;dihydrochloride] | < 5 µM
21 | CC(C)(N)c1cccc(-c2ccc3nc(N4CCNCC4)c(Cl)cc3c2)c1 [Example 114, 2-[3-(3-chloro-2-piperazin-1-yl-6-quinolyl)phenyl]propan-2-amine;dihydrochloride] | < 5 µM
22 | NCCCc1nc(-c2cnc(N3CCNCC3)c(Cl)c2)no1 [Example 76, 3-[3-(5-chloro-6-piperazin-1-yl-3-pyridyl)-1,2,4-oxadiazol-5-yl]propan-1-amine; dihydrochloride] | 5 to 100 µM

Row | SMILES | EC50
23 | NCc1cccc(OC(=O)c2cnc(N3CCNCC3)c(Cl)c2)c1 [Example 29, [3-(aminomethyl)phenyl] 5-chloro-6-piperazin-1-yl-pyridine-3-carboxylate;dihydrochloride] | < 5 µM
24 | CN1CCN(c2ccc(C(F)(F)F)cc2Cl)CC1 [Example 5, 1-[2-chloro-4-(trifluoromethyl)phenyl]-4-methyl-piperazine] | 100 to 500 µM
25 | Clc1cc(I)cnc1N1CCNCC1 [Example 79, 1-(3-chloro-5-iodo-2-pyridyl)piperazine] | 5 to 100 µM
26 | Clc1cc2cc(N[C@H]3CCCNC3)ccc2nc1N1CCNCC1 (stereo in doubt) [Example 104, 3-chloro-2-piperazin-1-yl-N-(3-piperidyl)quinolin-6-amine;dihydrochloride] | < 5 µM
27 | NCCc1ccc(NC(=O)c2cnc(N3CCNCC3)c(Cl)c2)cc1 [Example 34, N-[4-(2-aminoethyl)phenyl]-5-chloro-6-piperazin-1-yl-pyridine-3-carboxamide;dihydrochloride] | 5 to 100 µM
28 | N[C@H]1CCN(c2ccc3nc(N4CCNCC4)c(Cl)cc3c2)C1 [Example 102, (3S)-1-(3-chloro-2-piperazin-1-yl-6-quinolyl)pyrrolidin-3-amine;dihydrochloride] | < 5 µM
29 | NCCCC#Cc1cnc(N2CCNCC2)c(Cl)c1 [Example 87, 5-(5-chloro-6-piperazin-1-yl-3-pyridyl)pent-4-yn-1-amine; 2,2,2-trifluoroacetic acid] | < 5 µM
30 | NCCNc1ccc2nc(N3CCNCC3)c(Cl)cc2c1 [Example 62, N′-(3-chloro-2-piperazin-1-yl-6-quinolyl)ethane-1,2-diamine; dihydrochloride] | < 5 µM
31 | CN(C)CCn1cc(-c2ccc3nc(N4CCNCC4)c(Cl)cc3c2)nn1 [Example 95, 2-[4-(3-chloro-2-piperazin-1-yl-6-quinolyl)triazol-1-yl]-N,N-dimethyl-ethanamine;dihydrochloride] | < 5 µM
32 | N[C@@H]1CCN(c2ccc3nc(N4CCNCC4)c(Cl)cc3c2)C1 [Example 101, (3R)-1-(3-chloro-2-piperazin-1-yl-6-quinolyl)pyrrolidin-3-amine;dihydrochloride] | < 5 µM
33 | CN1CCN(c2ncc(C(F)(F)F)cc2Cl)CC1 [Example 1, 1-[3-chloro-5-(trifluoromethyl)-2-pyridyl]-4-methyl-piperazine] | 100 to 500 µM
34 | NCCc1ccc(C#Cc2cnc(N3CCNCC3)c(Cl)c2)cc1 [Example 92, 2-[4-[2-(5-chloro-6-piperazin-1-yl-3-pyridyl)ethynyl]phenyl]ethanamine; 2,2,2-trifluoroacetic acid] | < 5 µM
35 | CS(=O)(=O)Nc1cnc(N2CCNCC2)c(Cl)c1 [Example 36, N-(5-chloro-6-piperazin-1-yl-3-pyridyl)methane sulfonamide;hydrochloride] | 100 to 500 µM
36 | Clc1nc2ccccc2cc1N1CCNCC1 [Example 40, 2-chloro-3-piperazin-1-yl-quinoline;hydrochloride] | 5 to 100 µM
37 | Clc1cc2cc(N3CCCCC3)ccc2nc1N1CCNCC1 [Example 67, 3-chloro-2-piperazin-1-yl-6-(1-piperidyl)quinoline;hydrochloride] | 5 to 100 µM
38 | Clc1cc2cc(N[C@@H]3CCNC3)ccc2nc1N1CCNCC1 [Example 103, 3-chloro-2-piperazin-1-yl-N-[(3R)-pyrrolidin-3-yl]quinolin-6-amine;dihydrochloride] | 5 to 100 µM
39 | C[C@H]1CN(c2nc3ccccc3nc2Cl)CCN1 [Example 50, 2-chloro-3-[(3S)-3-methylpiperazin-1-yl]quinoxaline;hydrochloride] | 5 to 100 µM
40 | NCCc1cccc(-c2ccc3nc(N4CCNCC4)c(Cl)cc3c2)c1 [Example 115, 2-[3-(3-chloro-2-piperazin-1-yl-6-quinolyl)phenyl]ethanamine;dihydrochloride] | < 5 µM
41 | COC(=O)c1cnc(N2CCNCC2)c(Cl)c1 [Example 18, methyl 5-chloro-6-piperazin-1-yl-pyridine-3-carboxylate; hydrochloride] | 5 to 100 µM
42 | NC1CCN(c2ncc(C(F)(F)F)cc2Cl)CC1 [Example 7, 1-[3-chloro-5-(trifluoromethyl)-2-pyridyl]piperidin-4-amine] | 100 to 500 µM
43 | NCCc1nc(-c2cnc(N3CCNCC3)c(Cl)c2)no1 [Example 75, 2-[3-(5-chloro-6-piperazin-1-yl-3-pyridyl)-1,2,4-oxadiazol-5-yl]ethanamine;dihydrochloride] | < 5 µM
